From ChEMBL document CHEMBL1136764, “N6-cyclopentyl-2-(3-phenylaminocarbonyltriazene-1-yl)adenosine (TCPA), a very selective agonist with high affinity for the human adenosine A1 receptor” (J Med Chem, 2003)

How the values were obtained:
[1] = biological target: T1, Adenosine receptor A1 (Homo sapiens, UniProt P30542)
T1 sequence (P30542 whole entry): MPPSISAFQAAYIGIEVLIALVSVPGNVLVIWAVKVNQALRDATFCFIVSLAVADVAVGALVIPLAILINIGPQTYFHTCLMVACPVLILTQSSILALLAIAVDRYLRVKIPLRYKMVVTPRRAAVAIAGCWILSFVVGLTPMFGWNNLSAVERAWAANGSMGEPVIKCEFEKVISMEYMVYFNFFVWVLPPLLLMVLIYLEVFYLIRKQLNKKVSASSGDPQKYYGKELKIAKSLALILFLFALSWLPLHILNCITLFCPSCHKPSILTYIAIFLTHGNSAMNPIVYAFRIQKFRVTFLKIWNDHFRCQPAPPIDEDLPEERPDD
Description: In vitro binding affinity towards human adenosine A1 receptor by [3H]DPCPX displacement.

[2] = biological target: T2, Adenosine receptor A2b (Homo sapiens) (UniProt P29275); assay: In vitro binding affinity towards human adenosine A2B receptor by [3H]DPCPX displacement at 10 uM.
T2 sequence (whole entry): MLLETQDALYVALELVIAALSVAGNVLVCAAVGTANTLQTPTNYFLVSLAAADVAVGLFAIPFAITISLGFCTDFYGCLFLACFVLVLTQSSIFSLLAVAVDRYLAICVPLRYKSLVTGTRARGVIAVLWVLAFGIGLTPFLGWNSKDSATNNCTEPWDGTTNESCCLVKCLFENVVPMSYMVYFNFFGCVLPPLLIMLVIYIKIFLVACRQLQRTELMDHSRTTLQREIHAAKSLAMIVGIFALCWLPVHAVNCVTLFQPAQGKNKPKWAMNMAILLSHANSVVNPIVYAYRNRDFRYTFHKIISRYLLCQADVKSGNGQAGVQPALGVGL

[3] = biological target: T3, Adenosine receptor A3 (Homo sapiens, UniProt P0DMS8); assay: Binding affinity for human Adenosine A3 receptor using [125 I]-IABMECA
T3 sequence (P0DMS8 whole entry): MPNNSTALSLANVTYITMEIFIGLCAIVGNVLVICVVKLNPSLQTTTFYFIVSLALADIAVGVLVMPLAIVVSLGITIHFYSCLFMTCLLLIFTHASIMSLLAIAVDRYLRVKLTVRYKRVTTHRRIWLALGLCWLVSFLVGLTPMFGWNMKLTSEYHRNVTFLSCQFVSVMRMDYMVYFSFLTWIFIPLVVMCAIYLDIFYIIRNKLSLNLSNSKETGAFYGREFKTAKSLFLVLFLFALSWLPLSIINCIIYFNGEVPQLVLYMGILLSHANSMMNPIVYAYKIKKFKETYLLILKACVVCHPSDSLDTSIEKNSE

[4] = biological target: T4, Adenosine receptor A2a (Homo sapiens, UniProt P29274); assay: Binding affinity for human Adenosine A2A receptor using [3H]ZM-241385
[5] = biological target: T4, Adenosine receptor A2a
Description: Tested for binding affinity towards human adenosine A2A receptor using [3H]ZM-241385 as radioligand

[6] = biological target: T3, Adenosine receptor A3; assay: Inhibition of [125 I]-IABMECA binding to human adenosine A3 receptor
[7] = biological target: T2, Adenosine receptor A2b (Homo sapiens); assay: Binding affinity for human adenosine A2B receptor using [3H]DPCPX at 10 uM as percent displacement
[8] = biological target: T5, Adenosine receptor A1 (Homo sapiens) (UniProt P30542); assay: Percent displacement of [3H]DPCPX from human adenosine A1 receptor at 10 uM
T5 sequence (whole entry): T1 sequence (P30542 whole entry)

[9] = biological target: T1, Adenosine receptor A1; assay: Inhibition of cAMP formation in CHO cells expressing human adenosine A1 receptor; format: cell-based
[10] = biological target: T6, Adenosine receptor A3 (Homo sapiens) (UniProt P0DMS8); assay: Relative potency for human adenosine A3 receptor (Ki value)
T6 sequence (whole entry): T3 sequence (P0DMS8 whole entry)

[11] = biological target: Adenosine receptors; A1 & A3 (Homo sapiens) (UniProt P30542+P0DMS8); assay: Selectivity for adenosine A1 and A3 receptors; format: protein assay
[12] = biological target: T5, Adenosine receptor A1 (Homo sapiens); assay: Relative potency for human adenosine A1 receptor (Ki value)
[13] = biological target: T4, Adenosine receptor A2a; assay: Percent displacement of [3H]ZM-241,385 from human adenosine A2A receptor at 10 uM
[14] = biological target: T5, Adenosine receptor A1 (Homo sapiens); assay: Binding affinity for human adenosine A1 receptor using [3H]DPCPX; insoluble
[15] = biological target: T4, Adenosine receptor A2a; assay: Binding affinity for human adenosine A2A receptor using [3H]ZM-241385; insoluble
[16] = biological target: T6, Adenosine receptor A3 (Homo sapiens); assay: Binding affinity for human adenosine A3 receptor using [125 I]-IABMECA; insoluble
[17] = biological target: T2, Adenosine receptor A2b (Homo sapiens); assay: Percent displacement of [3H]DPCPX from human adenosine A2B receptor at 10 uM; insoluble

T4 sequence (P29274 whole entry): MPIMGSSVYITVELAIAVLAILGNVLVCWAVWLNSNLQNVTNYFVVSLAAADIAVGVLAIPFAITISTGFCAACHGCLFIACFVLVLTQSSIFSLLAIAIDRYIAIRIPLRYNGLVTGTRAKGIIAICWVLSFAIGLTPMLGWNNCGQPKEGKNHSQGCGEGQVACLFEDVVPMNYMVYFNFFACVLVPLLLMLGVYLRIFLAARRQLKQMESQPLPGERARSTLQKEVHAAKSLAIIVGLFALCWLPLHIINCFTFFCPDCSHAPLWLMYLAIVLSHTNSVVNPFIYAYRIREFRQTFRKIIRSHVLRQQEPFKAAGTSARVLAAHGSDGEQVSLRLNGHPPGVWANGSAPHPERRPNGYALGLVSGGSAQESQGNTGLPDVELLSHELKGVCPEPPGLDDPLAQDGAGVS

SMILES	Ki [1]	Displacement [2]	Ki [3]	Ki [4]	Ki [5]	Ki [6]	further results
CCNC(=O)/N=N/Nc1nc(N)c2ncn([C@@H]3O[C@H](CO)[C@@H](O)[C@H]3O)c2n1	0.045 µM	15%	0.113 µM	0.019 µM			
Nc1nc(/N=N/NC(=O)Nc2ccccc2Cl)nc2c1ncn2[C@@H]1O[C@H](CO)[C@@H](O)[C@H]1O	0.023 µM	30%			0.045 µM	0.179 µM	
Nc1nc(N=O)nc2c1ncn2[C@@H]1O[C@H](CO)[C@@H](O)[C@H]1O			0.58 µM	0.72 µM			Displacement [7]: 14%; Displacement [8]: 40%
O=C(N/N=N/c1nc(NCC(c2ccccc2)c2ccccc2)c2ncn([C@@H]3O[C@H](CO)[C@@H](O)[C@H]3O)c2n1)Nc1ccccc1	0.0031 µM	10%			0.98 µM	0.14 µM	
Nc1nc(N=NNC(=O)Nc2cccc(Cl)c2)nc2c1ncn2C1O[C@H](CO)[C@@H](O)[C@H]1O (some centres undefined)	0.015 µM		0.059 µM				
NC(=O)/N=N/Nc1nc(N)c2ncn([C@@H]3O[C@H](CO)[C@@H](O)[C@H]3O)c2n1	0.14 µM	9%	0.209 µM	0.088 µM			
O=C(N/N=N/c1nc(NC2CCCC2)c2ncn([C@@H]3O[C@H](CO)[C@@H](O)[C@H]3O)c2n1)Nc1ccccc1	0.0028 µM	10%			0.21 µM	0.6 µM	IC50 [9]: 0.0015 µM; Relative potency [10]: 1; Selectivity [11]: 214; Relative potency [12]: 1
COc1ccccc1NC(=O)/N=N/Nc1nc(N)c2ncn([C@@H]3O[C@H](CO)[C@@H](O)[C@H]3O)c2n1	0.02 µM	18%			0.125 µM	0.081 µM	
Nc1nc(/N=N/NC(=O)c2ccccc2)nc2c1ncn2[C@@H]1O[C@H](CO)[C@@H](O)[C@H]1O	1.9 µM		0.19 µM	1 µM			Displacement [7]: 8%
Nc1nc(NN=NC(=O)Oc2ccccc2)nc2c1ncn2C1O[C@H](CO)[C@@H](O)[C@H]1O (some centres undefined)						0.577 µM	
Nc1nc(/N=N/NC(=O)Nc2nccs2)nc2c1ncn2[C@@H]1O[C@H](CO)[C@@H](O)[C@H]1O	0.024 µM	79%			0.025 µM	0.61 µM	
OC[C@H]1O[C@@H](n2cnc3c(NC4CCCC4)nc(Cl)nc32)[C@H](O)[C@@H]1O					0.639 µM		
Nc1nc(/N=N/NC(=O)Nc2cccc(Cl)c2)nc2c1ncn2C1O[C@H](CO)[C@@H](O)[C@H]1O (some centres undefined)		64%					Displacement [13]: 29.9%
NC(=O)/N=N/Nc1nc(Nc2ccccc2)c2ncn([C@@H]3O[C@H](CO)[C@@H](O)[C@H]3O)c2n1	0.204 µM	10%				0.175 µM	Displacement [13]: 17.7%
Nc1nc(/N=N/NC(=O)Nc2ccc(Cl)cc2)nc2c1ncn2[C@@H]1O[C@H](CO)[C@@H](O)[C@H]1O	0.015 µM	21%	0.039 µM				Displacement [13]: 4.4%
Nc1nc(/N=N/c2ccccc2)nc2c1ncn2[C@@H]1O[C@H](CO)[C@@H](O)[C@H]1O			0.11 µM	0.18 µM			Displacement [7]: 11%
Nc1nc(/N=N/NC(=O)Nc2ccccc2)nc2c1ncn2[C@@H]1O[C@H](CO)[C@@H](O)[C@H]1O	0.0061 µM	54%	0.11 µM	0.025 µM			
Nc1nc(/N=N/NC(=O)Nc2cccc(C(F)(F)F)c2)nc2c1ncn2C1O[C@H](CO)[C@@H](O)[C@H]1O (some centres undefined)							Other [14]: Insoluble; Other [15]: Insoluble; Other [16]: Insoluble; Other [17]: Insoluble
Nc1nc(/N=N/NC(=O)NC2CCCCC2)nc2c1ncn2[C@@H]1O[C@H](CO)[C@@H](O)[C@H]1O	0.0058 µM	6%	0.063 µM	0.025 µM			
O=C(N/N=N/c1nc(Nc2ccccc2)c2ncn([C@@H]3O[C@H](CO)[C@@H](O)[C@H]3O)c2n1)Nc1ccccc1	0.43 µM	9%			0.0243 µM	0.09 µM	
Nc1nc(/N=N/NC(=O)Oc2ccccc2)nc2c1ncn2C1O[C@H](CO)[C@@H](O)[C@H]1O (some centres undefined)		6%					Displacement [8]: 43%; Displacement [13]: 38.9%
Nc1nc(/N=N/NC(=O)NCc2ccccc2)nc2c1ncn2[C@@H]1O[C@H](CO)[C@@H](O)[C@H]1O	0.042 µM	9%			0.025 µM	0.147 µM	
COc1ccc(NC(=O)/N=N/Nc2nc(N)c3ncn([C@@H]4O[C@H](CO)[C@@H](O)[C@H]4O)c3n2)cc1	0.02 µM	15%			0.025 µM	0.073 µM	
